Measurements taken from patent US10829520B2, “Beta-hairpin peptidomimetics” (POLYPHOR AG, priority 2015, dated 2020).
Where a SMILES comes first, the peptide text is derived from it. Bridges are numbered along the chain shown (N, C = ends). Roman numbers before positions name the chains, in order. [ ]: non-standard residue; d: D form. NMeDab = CN[C@@H](CCN)C(=O)O; Tle = CC(C)(C)[C@H](N)C(=O)O; dDab = NCC[C@@H](N)C(=O)O; Nle = CCCC[C@H](N)C(=O)O; Orn = NCCC[C@H](N)C(=O)O; Dab = NCC[C@H](N)C(=O)O; Dap = NC[C@H](N)C(=O)O; Sar = CNCC(=O)O

Experiments:
Type in all cases: cell-based
[1] = system: Acinetobacter baumannii 872842; settings: 872842
[2] = system: Acinetobacter baumannii DSM 30008; settings: DSM 30008
In short: (§1)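 Peptide MICs were determined by CLSI broth microdilution in cation-adjusted Mueller-Hinton II broth with 0.002% polysorbate 80, inoculum approx. 10^6 CFU/mL. Two-fold serial dilutions of peptide were tested. MIC was the lowest concentration (μg/mL) with no visible growth after 18-20 hours at 35° C.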

[3] = system: Escherichia coli 926415; settings: 926415
[4] = system: Escherichia coli ATCC 25922; settings: ATCC 25922
In short: as §1

[5] = system: Klebsiella pneumoniae 968733; settings: 968733
[6] = system: Klebsiella pneumoniae SSI #3010; settings: SSI #3010
In short: as §1

[7] = system: Pseudomonas aeruginosa ATCC 27853; settings: ATCC 27853
In short: as §1

[8] = system: human red blood cells (hRBC); assay: Hemolysis of human red blood cells; settings: red cells of human, 1 h
In short: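 Percent lysis of washed human erythrocytes after 1 h at 37° C. with 100 μg/mL peptide, calculated from OD540 of 8-fold diluted supernatant as a fraction of the 2.5% Triton X-100 value.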

Structure (SMILES) | Acinetobacter baumannii 872842 MIC [1] [mg/L] | Acinetobacter baumannii DSM 30008 MIC [2] [mg/L] | Escherichia coli 926415 MIC [3] [mg/L] | Escherichia coli ATCC 25922 MIC [4] [mg/L] | Klebsiella pneumoniae 968733 MIC [5] [mg/L] | Klebsiella pneumoniae SSI #3010 MIC [6] [mg/L] | Pseudomonas aeruginosa ATCC 27853 MIC [7] [mg/L] | Hemolysis at 100 μg/mL [8]; 100 [%] | Hemolysis at 100 μg/mL ([8]; 100 μg/mL) [%]
CCCC[C@@H]1NC(=O)[C@@H]2CCCN2C(=O)[C@H]2CCCN2C(=O)[C@H](CO)NC(=O)[C@H](C)NC(=O)[C@H](C(C)(C)C)NC(=O)[C@H](CCN)NC(=O)[C@H](Cc2c[nH]c3ccccc23)NC(=O)[C@H](CCN)NC(=O)[C@@H](CCN)NC(=O)[C@H](CC(=O)N(C)[C@@H](CCN)C(=O)N[C@H]2CCNC(=O)[C@H]([C@@H](C)O)NC(=O)[C@H](CCN)NC(=O)[C@H](CCN)NC(=O)[C@H](CC(C)C)NC(=O)[C@@H](Cc3ccccc3)NC(=O)[C@H](CCN)NC2=O)NC(=O)[C@H](CCN)NC(=O)[C@H](Cc2ccc(O)cc2)NC(=O)[C@H](CO)NC1=O [Ex. 69] (I: cyclo([Nle]SY[Dab]D[dDab][Dab]W[Dab][Tle]AS[dP]P) / II: [NMeDab][Dab][Dab][dF]L[Dab][Dab]T; amide I:5-II:N; lactam II:2-II:C) | 4 | 1 | 2 | 0.5 | 2 | 1 | 1 | 2 | –
CCCC[C@@H]1NC(=O)[C@@H]2CCCN2C(=O)[C@H]2CCCN2C(=O)[C@H](CO)NC(=O)[C@H](C)NC(=O)[C@H](C(C)(C)C)NC(=O)[C@H](CCN)NC(=O)[C@H](Cc2c[nH]c3ccccc23)NC(=O)[C@@H](N)CCC(=O)NCC[C@@H](C(N)=O)NC(=O)[C@H](CCC(=O)N[C@H](CCN)C(=O)N[C@H]2CCNC(=O)[C@H]([C@@H](C)O)NC(=O)[C@H](CCN)NC(=O)[C@H](CCN)NC(=O)[C@H](CC(C)C)NC(=O)[C@@H](Cc3ccccc3)NC(=O)[C@H](CCN)NC2=O)NC(=O)[C@H](CCN)NC(=O)[C@H](Cc2ccc(O)cc2)NC(=O)[C@H](CO)NC1=O [Ex. 193] (I: H-EW[Dab][Tle]AS[dP]P[Nle]SY[Dab]E[Dab]-NH2 / II: [dDab][Dab][Dab][dF]L[Dab][Dab]T; lactam I:1-I:14, II:2-II:C; amide I:13-II:N) | 1 | 1 | 0.5 | 0.5 | 1 | 0.5 | 2 | <1 | –
CC(C)C[C@@H]1NC(=O)[C@@H](CC(C)C)NC(=O)[C@H](CCN)NC(=O)[C@@H](NC(=O)[C@H](CCN)NC(=O)[C@@H](NC(=O)[C@H](CCN)NC(=O)CN(C)C(=O)[C@@H]2CSSC[C@H](NC(=O)[C@@H](N)Cc3c[nH]c4ccccc34)C(=O)N[C@@H](C(C)C)C(=O)N[C@@H](CCCNC(=N)N)C(=O)N[C@@H](CCCNC(=N)N)C(=O)N3CCC[C@@H]3C(=O)N3CCC[C@H]3C(=O)N[C@@H](CC(C)C)C(=O)N[C@@H](CO)C(=O)N[C@@H](Cc3ccc(O)cc3)C(=O)N2)[C@@H](C)O)CCNC(=O)[C@H]([C@@H](C)O)NC(=O)[C@H](CCN)NC(=O)[C@H](CCN)NC1=O [Ex. 152] (H-WCVRR[dP]PLSYC[Sar][Dab]T[Dab][Dab][Dab][dL]L[Dab][Dab]T; disulfide 2-11; lactam 16-C) | 0.125 | 0.25 | 2 | 0.25 | 8 | 0.25 | 2 | – | 1
CCCC[C@@H]1NC(=O)[C@@H]2CCCN2C(=O)[C@H]2CCCN2C(=O)[C@H](CO)NC(=O)[C@H](C)NC(=O)[C@H](C(C)(C)C)NC(=O)[C@H](CCN)NC(=O)[C@H](Cc2c[nH]c3ccccc23)NC(=O)[C@@H](N)CSSC[C@@H](C(=O)N[C@H](CCN)C(=O)N[C@H]2CCN(C)C(=O)[C@H](C(C)C)NC(=O)[C@H](CCN)NC(=O)[C@H](CCN)NC(=O)[C@H](CC(C)C)NC(=O)[C@@H](Cc3ccccc3)NC(=O)[C@H](CCN)NC2=O)NC(=O)[C@H](CCCN)NC(=O)[C@H](CCN)NC(=O)[C@H](Cc2ccc(O)cc2)NC(=O)[C@H](CO)NC1=O [Ex. 216] | 0.5 | 0.125 | 0.0625 | 0.125 | 0.25 | 0.125 | 0.5 | – | 1
CCCC[C@@H]1NC(=O)[C@@H]2CCCN2C(=O)[C@H]2CCCN2C(=O)[C@H](CO)NC(=O)[C@H](CO)NC(=O)[C@H](C(C)(C)C)NC(=O)[C@H](CCN)NC(=O)[C@H](Cc2c[nH]c3ccccc23)NC(=O)[C@@H](N)CSSC[C@@H](C(=O)N[C@@H](C)C(=O)N[C@H](CCN)C(=O)N[C@H]2CCNC(=O)[C@H]([C@@H](C)O)NC(=O)[C@H](CCN)NC(=O)[C@H](CCN)NC(=O)[C@H](CC(C)C)NC(=O)[C@@H](Cc3ccccc3)NC(=O)[C@H](CCN)NC2=O)NC(=O)[C@H](CCCN)NC(=O)[C@H](CCN)NC(=O)[C@H](Cc2ccc(O)cc2)NC(=O)[C@H](CO)NC1=O [Ex. 199] (H-CW[Dab][Tle]SS[dP]P[Nle]SY[Dab][Orn]CA[dDab][Dab][Dab][dF]L[Dab][Dab]T; disulfide 1-14; lactam 17-C) | 0.5 | 2 | 0.5 | 0.25 | 4 | 0.5 | 2 | – | <1
CNCC(=O)N[C@@H](Cc1c[nH]c2ccccc12)C(=O)N[C@H]1CSSC[C@@H](C(=O)N(C)CC(=O)N[C@@H](CCN)C(=O)N[C@H](C(=O)N[C@@H](CCN)C(=O)N[C@H]2CCNC(=O)[C@H]([C@@H](C)O)NC(=O)[C@H](CCN)NC(=O)[C@H](CCN)NC(=O)[C@H](CC(C)C)NC(=O)[C@@H](CC(C)C)NC(=O)[C@H](CCN)NC2=O)[C@@H](C)O)NC(=O)[C@H](Cc2ccc(O)cc2)NC(=O)[C@H](CO)NC(=O)[C@H](CC(C)C)NC(=O)[C@@H]2CCCN2C(=O)[C@H]2CCCN2C(=O)[C@H](CCN)NC(=O)[C@H](C)NC(=O)[C@H](C(C)C)NC1=O [Ex. 185] (H-[Sar]WCVA[Dab][dP]PLSYC[Sar][Dab]T[Dab][Dab][Dab][dL]L[Dab][Dab]T; disulfide 3-12; lactam 17-C) | 1 | 0.25 | 2 | 0.25 | 8 | 1 | 1 | – | 1
CCCC[C@@H]1NC(=O)[C@@H]2CCCN2C(=O)[C@H]2CCCN2C(=O)[C@H](CO)NC(=O)[C@H](C)NC(=O)[C@H](C(C)(C)C)NC(=O)[C@@H](NC(=O)[C@H](Cc2c[nH]c3ccccc23)NC(C)=O)CSSC[C@@H](C(=O)N[C@@H](CCCN)C(=O)N[C@@H](CCN)C(=O)N[C@H]2CCNC(=O)[C@H]([C@@H](C)O)NC(=O)[C@H](CCN)NC(=O)[C@H](CCN)NC(=O)[C@H](CC(C)C)NC(=O)[C@@H](Cc3ccccc3)NC(=O)[C@H](CCN)NC2=O)NC(=O)[C@H](Cc2ccc(O)cc2)NC(=O)[C@H](CN)NC1=O [Ex. 46] (Ac-WC[Tle]AS[dP]P[Nle][Dap]YC[Orn][Dab][Dab][Dab][dF]L[Dab][Dab]T; disulfide 2-11; lactam 14-C) | 0.5 | 0.25 | 0.5 | 0.125 | 2 | 0.25 | 2 | – | <1
CCCC[C@@H]1NC(=O)[C@@H]2CCCN2C(=O)[C@H]2CCCN2C(=O)[C@H](CO)NC(=O)[C@H](CN)NC(=O)[C@H](C(C)(C)C)NC(=O)[C@H](CCN)NC(=O)[C@H](Cc2c[nH]c3ccccc23)NC(=O)[C@H](CCN)NC(=O)[C@@H](CCN)NC(=O)[C@H](CCC(=O)N[C@@H](CCN)C(=O)N[C@H](C(=O)N[C@@H](CCN)C(=O)N[C@H]2CCNC(=O)[C@H]([C@@H](C)O)NC(=O)[C@H](CCN)NC(=O)[C@H](CCN)NC(=O)[C@H](CC(C)C)NC(=O)[C@@H](CC(C)C)NC(=O)[C@H](CCN)NC2=O)[C@@H](C)O)NC(=O)[C@H](CCN)NC(=O)[C@H](Cc2ccc(O)cc2)NC(=O)[C@H](CO)NC1=O [Ex. 84] (I: cyclo([Nle]SY[Dab]E[dDab][Dab]W[Dab][Tle][Dap]S[dP]P) / II: [Dab]T[Dab][Dab][Dab][dL]L[Dab][Dab]T; amide I:5-II:N; lactam II:4-II:C) | 2 | 1 | 1 | 1 | 2 | 2 | 2 | 1 | –
